# Laboratory results published in patent US7649012B2, “Compounds, pharmaceutical compositions containing same, and methods of use for same” (FASgen, Inc., priority 2002, dated 2010).
# Where two headings read alike, the source gives them in different places.
# How the values were obtained:
# [1] = Weight loss screen in Balb/C mice; type: in vivo; conditions: Mus musculus, read-out: Weight Loss; for change in vivo at 60 mg/kg: ip, 60 mg/kg intraperitoneally
# Experimental: Balb/C mice (Jackson Labs) are utilized for the initial weight loss screening. Animals are housed in temperature and 12 hour day/night cycle rooms and fed mouse chow and water ad lib. Three mice are utilized for each compound tested with vehicle controls in triplicate per experiment. For the experiments, mice are housed separately for each compound tested three mice to a cage. […] Mice are observed and weighed daily; average weights and standard errors are computed with Excel (Microsoft). The experiment continues until treated animals reach their pretreatment weights. […]
# OV = assay: XTT cytotoxicity assay, cells marked (OV); type: cell-based
# [2] = test system: MCF-7 human breast cancer cells; assay: Crystal violet cell growth assay; type: cell-based; conditions: MCF7, MCF-7, 72 hours, read-out: Cr. Violet(IC50)
# In short: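 MCF-7 cells (5×10^4/well) in DMEM + 10% FBS, cultured overnight at 37° C, then given compounds in DMSO at 50, 40, 30, 20 and 10 μg/ml in triplicate for 72 h. Fixed cells stained with crystal violet, solubilised in SDS, OD490 read as growth; IC50 computed.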
# [3] = test system: MCF-7 human breast cancer cells; assay: XTT cytotoxicity assay; type: cell-based; conditions: MCF7, MCF-7, 72 hours, some cells marked (M)
# Experimental: The XTT assay is a non-radioactive alternative for the [^51 Cr] release cytotoxicity assay. XTT is a tetrazolium salt that is reduced to a formazan dye only by metabolically active, viable cells. The reduction of XTT is measured spectrophotometrically as OD490-OD650.
# To measure the cytotoxicity of specific compounds against cancer cells, 9×10^3 MCF-7 human breast cancer cells, obtained from the American Type Culture Collection are plated per well in 96 well plates in DMEM medium with 10% fetal bovine serum, insulin, penicillin, and streptomycin. Following overnight culture at 37° C. and 5% CO2, the compounds to be tested, dissolved in DMSO, are added to the wells in 1 μl volume at the following concentrations: 80, 40, 20, 10, 5, 2.5, 1.25, and 0.625 μg/ml in triplicate. Additional concentrations are tested if required. 1 μl of DMSO is added to triplicate wells are the vehicle control. C75 is run at 40, 20, […], and 5 μg/ml in triplicate as positive controls. After 72 hours of incubation, cells are incubated for 4 hours with the XTT reagent as per manufacturer's instructions (Cell Proliferation Kit II (XTT) Roche). Plates are read at OD490 and OD650 on a Molecular Devices SpectraMax Plus Spectrophotometer. Three wells containing the XTT reagent without cells serve as the plate blank. XTT data are reported as OD490-OD650-Averages and standard error of the mean are computed using SOFTmax Pro software (Molecular Dynamics).
# The IC50 for the compounds is defined as the concentration of drug leading to a 50% reduction in OD490-OD650 compared to controls. The OD490-OD650 are computed by the SOFTmax PRO software (Molecular Devices) for each compound concentration. IC50 is calculated by linear regression, plotting the FAS activity as percent of control versus drug concentrations. Linear regression, best-fit line, r^2, and 95% confidence intervals are determined using Prism Version 3.0 (Graph Pad Software).
# [4] = test system: Staphylococcus aureus (ATCC # 29213); assay: Broth microdilution MIC; type: cell-based; conditions: Staphylococcus aureus, ATCC29213
# In short: (§1)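 Run in Mueller Hinton Broth and Trypticase Soy Broth, with inoculum at 0.5 McFarland diluted 1:10 and compounds in DMSO at 25 to 0.78 ug/ml (final well concentrations not given) in duplicate. OD600 read after 24 h at 37° C; MIC derived by linear regression.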
# [5] = test system: Pseudomonas aeruginosa (ATCC # 27853); assay: Broth microdilution MIC; type: cell-based; conditions: for PSAE/MH(MIC): Mueller Hinton Broth; for PSAE/Tsoy(MIC): Trypticase Soy Broth
# In short: as §1
# [6] = test system: Enterococcus faecalis (ATCC # 29212); assay: Broth microdilution MIC; type: cell-based; conditions: for MIC: Enterococcus faecalis, ATCC29212
# In short: as §1
# [7] = test system: Escherichia coli (ATCC # 25922); assay: Broth microdilution MIC; type: cell-based; conditions: for MIC: Escherichia coli, ATCC25922
# In short: as §1
# [8] = Mueller Hinton Broth, read-out: SA/MH(MIC)
# [9] = Trypticase Soy Broth, read-out: SA/Tsoy(MIC)
# [10] = Mueller Hinton Broth, read-out: EF/MH(MIC)
# [11] = Trypticase Soy Broth, read-out: Ecoli/Tsoy(MIC)
# [12] = Mueller Hinton Broth, read-out: Ecoli/MH(MIC)
# [13] = Trypticase Soy Broth, read-out: EF/Tsoy(MIC)
IC50 [2] [µg/mL],"MIC [4, 8] [µg/mL]","MIC [4, 9] [µg/mL]",PSAE/MH(MIC) [5],PSAE/Tsoy(MIC) [5],"MIC [6, 10] [µg/mL]",EF/Tsoy(MIC) ([6]; Trypticase Soy Broth),"MIC [7, 12] [µg/mL]",Ecoli/Tsoy(MIC) ([7]; Trypticase Soy Broth),SMILES,"change in vivo at 60 mg/kg ([1]; 48 h, day2) [%]",IC50 (OV) [µg/mL],IC50 [3] [µg/mL],"change in vivo at 60 mg/kg ([1]; 96 h, day4) [%]","MIC [7, 11] [µg/mL]",Ecoli/MH(MIC) ([7]; Mueller Hinton Broth),"change in vivo at 60 mg/kg ([1]; 120 h, day5) [%]",change in vivo at 30 mg/kg ([1]; 24 h) [%],"change in vivo at 60 mg/kg ([1]; 24 h, day1) [%]","MIC [6, 13] [µg/mL]","change in vivo at 60 mg/kg ([1]; 72 h, day3) [%]"
28.7,–,–,–,–,–,–,–,–,CCCCCCCCC1(C)SC(=O)C=C1OCC(=O)NNC(C)=O (stereo not shown),–,16,25.3,5.9,–,–,–,–,–,–,–
26.3,–,–,–,–,–,–,–,–,CCCCCCCCC1(C)SC(=O)C=C1OCC(=O)NNC(=O)c1ccco1 (stereo not shown),–,21.3,26.4,6.3,–,–,–,–,–,–,–
41.4 ± 14.1,64,41,Neg,Neg,73,–,296,Neg,CCCCCCCC[C@@]1(C)SC(=O)C=C1OC(=O)OC (racemic),–,–,21.6 ± 0.2,–,–,–,–,–,7.65,65,–

# The remaining lines, values behind:
SMILES,IC50 [2] [µg/mL],"MIC [4, 8] [µg/mL]","MIC [4, 9] [µg/mL]",PSAE/MH(MIC) [5],PSAE/Tsoy(MIC) [5],"MIC [6, 10] [µg/mL]",EF/Tsoy(MIC) ([6]; Trypticase Soy Broth),"MIC [7, 12] [µg/mL]",Ecoli/Tsoy(MIC) ([7]; Trypticase Soy Broth),"change in vivo at 60 mg/kg ([1]; 48 h, day2) [%]",IC50 (OV) [µg/mL],IC50 [3] [µg/mL],"change in vivo at 60 mg/kg ([1]; 96 h, day4) [%]","MIC [7, 11] [µg/mL]",Ecoli/MH(MIC) ([7]; Mueller Hinton Broth),"change in vivo at 60 mg/kg ([1]; 120 h, day5) [%]",change in vivo at 30 mg/kg ([1]; 24 h) [%],"change in vivo at 60 mg/kg ([1]; 24 h, day1) [%]","MIC [6, 13] [µg/mL]","change in vivo at 60 mg/kg ([1]; 72 h, day3) [%]"
CCCCCCCCC1(C)SC(=O)C=C1OCC(=O)NNCc1ccc(Cl)cc1 (stereo not shown),< 5,–,–,–,–,–,–,–,–,1.4,16,6.7,–,–,–,–,–,–,–,–
CC1(Cc2ccccc2)SC(=O)C=C1O (stereo not shown),> 50,57,67,Neg,Neg,128,Neg,–,–,1.6,–,> 80,–,299,Neg,–,–,–,–,–
CC/C=C/C=C/C1(C)SC(=O)C=C1O (stereo not shown),> 50,202,85,Neg,Neg,186,Neg,225,Neg,–,–,> 80,–,–,–,3.2,–,–,–,–
CCCCCCCCC1(C)SC(=O)C(C)=C1O (stereo not shown),29.4 ± 4.3,45 ± 2,23.5 ± 0.4,Neg,Neg,44,–,–,–,–,–,48 ± 1.4,–,290,Neg,–,1,0,105,–
CCCCCCCCC1(C)SC(=O)C=C1OCc1ccccc1 (stereo not shown),9.5,–,–,–,–,–,–,–,–,–,27.8,29.2,–,–,–,–,–,–,–,5.2
